The results in this text go back to patent US20260000692A1, “Substituted N-(Pyridin-2-yl)Acetamide Derivatives as CDK12/13 Inhibitors” (Aurigene Oncology Limited, priority 2022, published 2026).

In general, IC50 refers to the concentration that inhibits the measured activity by half. Broadly, the inhibition is the change of the read-out against control, counted positive when it falls.

The target in the assay is CDK12 (Homo sapiens, UniProt Q9NYV4). The experiment in a line: Biochemical assay for CDK12 (LANCE TR-FRET, IC50 determination). The note with it: for IC50: CDK12, IC50 class, read-out: IC50 μM (in range); for inhibition at 10 µM: compound at 10 μM, read-out: CDK12 % Inhibition @ 10 μM. The gist of the method: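 30 nM CDK12 phosphorylated 100 nM ULight-4E-BP1 (Thr37/Thr46) peptide at 100 µM ATP, as printed, in HEPES pH 7.5 buffer with MgCl2 and DTT. Compound and enzyme were preincubated 60 min, then reacted 60 min at room temperature before stopping with EDTA and Eu anti-phospho antibody. TR-FRET 665/615 ratio gave sigmoidal IC50 fits.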
For orientation: In TR-FRET formats the signal depends on donor and acceptor labels being close together.

Sequence of CDK12 (Q9NYV4 whole entry): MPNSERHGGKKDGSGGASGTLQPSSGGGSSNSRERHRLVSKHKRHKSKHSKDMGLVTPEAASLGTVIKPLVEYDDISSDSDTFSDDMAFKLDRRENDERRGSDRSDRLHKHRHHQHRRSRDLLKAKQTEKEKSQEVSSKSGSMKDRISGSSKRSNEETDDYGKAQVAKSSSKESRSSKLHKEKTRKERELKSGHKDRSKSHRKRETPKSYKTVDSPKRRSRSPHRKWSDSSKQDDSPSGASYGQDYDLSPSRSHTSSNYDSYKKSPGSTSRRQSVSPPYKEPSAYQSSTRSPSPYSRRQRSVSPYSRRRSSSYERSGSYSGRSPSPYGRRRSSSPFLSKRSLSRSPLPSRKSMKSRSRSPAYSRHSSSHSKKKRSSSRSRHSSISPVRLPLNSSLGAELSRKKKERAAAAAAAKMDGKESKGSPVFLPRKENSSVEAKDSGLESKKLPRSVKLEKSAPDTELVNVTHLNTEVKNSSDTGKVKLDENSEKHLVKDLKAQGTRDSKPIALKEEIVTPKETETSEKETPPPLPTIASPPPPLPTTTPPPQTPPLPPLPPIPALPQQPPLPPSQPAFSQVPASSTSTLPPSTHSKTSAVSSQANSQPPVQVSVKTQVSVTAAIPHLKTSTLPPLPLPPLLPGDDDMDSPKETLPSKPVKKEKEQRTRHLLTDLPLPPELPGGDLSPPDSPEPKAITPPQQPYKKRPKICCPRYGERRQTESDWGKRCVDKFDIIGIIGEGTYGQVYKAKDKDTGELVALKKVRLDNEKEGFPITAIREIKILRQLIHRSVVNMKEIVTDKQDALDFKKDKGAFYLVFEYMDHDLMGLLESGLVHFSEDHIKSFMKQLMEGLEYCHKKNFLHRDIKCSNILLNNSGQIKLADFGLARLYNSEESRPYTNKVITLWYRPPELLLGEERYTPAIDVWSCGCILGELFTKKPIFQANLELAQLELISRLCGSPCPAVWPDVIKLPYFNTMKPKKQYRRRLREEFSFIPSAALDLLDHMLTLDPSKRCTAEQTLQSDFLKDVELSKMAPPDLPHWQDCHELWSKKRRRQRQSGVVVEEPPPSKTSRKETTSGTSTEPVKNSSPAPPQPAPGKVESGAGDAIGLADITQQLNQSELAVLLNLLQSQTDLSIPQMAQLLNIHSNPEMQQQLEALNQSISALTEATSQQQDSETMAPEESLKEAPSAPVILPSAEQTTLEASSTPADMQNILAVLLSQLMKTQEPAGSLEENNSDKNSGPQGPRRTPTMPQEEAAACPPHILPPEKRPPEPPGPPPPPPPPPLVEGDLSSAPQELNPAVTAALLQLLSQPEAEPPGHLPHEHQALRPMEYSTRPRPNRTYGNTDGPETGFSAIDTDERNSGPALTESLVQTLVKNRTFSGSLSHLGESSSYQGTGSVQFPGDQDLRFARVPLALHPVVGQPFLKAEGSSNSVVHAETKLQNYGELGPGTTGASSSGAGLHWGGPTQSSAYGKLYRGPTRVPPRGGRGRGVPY
Sequence of CDK12 (O75909 whole entry partner): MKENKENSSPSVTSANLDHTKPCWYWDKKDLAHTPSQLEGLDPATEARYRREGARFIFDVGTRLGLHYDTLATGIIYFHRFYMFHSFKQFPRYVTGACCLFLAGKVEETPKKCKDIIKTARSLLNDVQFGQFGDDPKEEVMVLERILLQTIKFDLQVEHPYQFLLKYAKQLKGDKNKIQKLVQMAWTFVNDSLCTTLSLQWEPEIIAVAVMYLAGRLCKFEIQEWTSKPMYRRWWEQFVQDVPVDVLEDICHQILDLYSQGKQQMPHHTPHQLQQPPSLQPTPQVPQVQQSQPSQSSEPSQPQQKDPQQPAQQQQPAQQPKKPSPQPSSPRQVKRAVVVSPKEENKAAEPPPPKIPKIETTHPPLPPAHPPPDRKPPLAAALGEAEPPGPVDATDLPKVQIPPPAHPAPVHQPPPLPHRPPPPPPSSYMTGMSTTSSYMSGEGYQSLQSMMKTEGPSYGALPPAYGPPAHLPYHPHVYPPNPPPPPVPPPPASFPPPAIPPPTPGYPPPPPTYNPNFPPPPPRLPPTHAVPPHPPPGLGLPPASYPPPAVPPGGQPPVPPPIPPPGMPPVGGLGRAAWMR

For the compound `CN1CCC[C@H](Oc2cc(NC(=O)Cc3ccc(C4=CCN(C#N)CC4)nc3)ncc2Cl)C1` [Compound 33, (S)-N-(5-chloro-4-((1-methylpiperidin-3-yl)oxy)pyridin-2-yl)-2-(1′-cyano-1′,2′,3′,6′-tetrahydro-[2,4′-bipyridin]-5-yl)acetamide], the IC50 is under 0.01 µM and the inhibition at 10 µM is 88%.

As to `COc1cc(NC(=O)Cc2ccc(C3=CCCN(C#N)C3)nc2)ncc1Cl` [Compound 34, N-(5-chloro-4-methoxypyridin-2-yl)-2-(1′-cyano-1′,2′,5′,6′-tetrahydro-[2,3′-bipyridin]-5-yl)acetamide], the IC50 was under 0.01 µM and the inhibition at 10 µM is 91%.

For `COC[C@H](C)Oc1cc(NC(=O)Cc2ccc(C3=CCCN(C#N)C3)nc2)ncc1Cl` [Compound 35, (S)-N-(5-chloro-4-((1-methoxypropan-2-yl)oxy)pyridin-2-yl)-2-(1′-cyano-1′,2′,5′,6′-tetrahydro-[2,3′-bipyridin]-5-yl)acetamide], the IC50 is under 0.01 µM and the inhibition at 10 µM was 95%.

As to `COC[C@@H](C)Oc1cc(NC(=O)Cc2ccc(C3=CCCN(C#N)C3)nc2)ncc1Cl` [Compound 36, (R)-N-(5-chloro-4-((1-methoxypropan-2-yl)oxy)pyridin-2-yl)-2-(1′-cyano-1′,2′,5′,6′-tetrahydro-[2,3′-bipyridin]-5-yl)acetamide], the IC50 was under 0.01 µM and the inhibition at 10 µM amounted to 95%.

Consider `CN1CCC(Oc2cc(NC(=O)Cc3ccc(C4=CCCN(C#N)C4)nc3)ncc2Cl)CC1` [Compound 37, N-(5-chloro-4-((1-methylpiperidin-4-yl)oxy)pyridin-2-yl)-2-(1′-cyano-1′,2′,5′,6′-tetrahydro-[2,3′-bipyridin]-5-yl)acetamide], for which the IC50 was under 0.01 µM and the inhibition at 10 µM worked out at 94%.

For the compound `CN1CC[C@@H](Oc2cc(NC(=O)Cc3ccc(C4=CCCN(C#N)C4)nc3)ncc2Cl)C1` [Compound 38, (R)-N-(5-chloro-4-((1-methylpyrrolidin-3-yl)oxy)pyridin-2-yl)-2-(1′-cyano-1′,2′,5′,6′-tetrahydro-[2,3′-bipyridin]-5-yl)acetamide], the IC50 was under 0.01 µM and the inhibition at 10 µM turned out to be 88%.

On to `CN1CC[C@H](Oc2cc(NC(=O)Cc3ccc(C4=CCCN(C#N)C4)nc3)ncc2Cl)C1` [Compound 39, (S)-N-(5-chloro-4-((1-methylpyrrolidin-3-yl)oxy)pyridin-2-yl)-2-(1′-cyano-1′,2′,5′,6′-tetrahydro-[2,3′-bipyridin]-5-yl)acetamide], for which the IC50 fell in the range of 0.01 to 0.1 µM and the inhibition at 10 µM turned out to be 98%.

With `N#CN1CCC=C(c2ccc(CC(=O)Nc3cc(O[C@@H]4CCOC4)c(Cl)cn3)cn2)C1` [Compound 40, (R)-N-(5-chloro-4-((tetrahydrofuran-3-yl)oxy)pyridin-2-yl)-2-(1′-cyano-1′,2′,5′,6′-tetrahydro-[2,3′-bipyridin]-5-yl)acetamide], the IC50 was under 0.01 µM and the inhibition at 10 µM was determined as 91%.

Turning to `N#CN1CCC=C(c2ccc(CC(=O)Nc3cc(O[C@H]4CCOC4)c(Cl)cn3)cn2)C1` [Compound 41, (S)-N-(5-chloro-4-((tetrahydrofuran-3-yl)oxy)pyridin-2-yl)-2-(1′-cyano-1′,2′,5′,6′-tetrahydro-[2,3′-bipyridin]-5-yl)acetamide], the IC50 is under 0.01 µM and the inhibition at 10 µM stood at 96%.

With `CC(CN(C)C)Oc1cc(NC(=O)Cc2ccc(C3=CCCN(C#N)C3)nc2)ncc1Cl` (stereo not shown) [Compound 42, N-(5-chloro-4-((1-(dimethylamino)propan-2-yl)oxy)pyridin-2-yl)-2-(1′-cyano-1′,2′,5′,6′-tetrahydro-[2,3′-bipyridin]-5-yl)acetamide], the IC50 was over 0.1 µM and the inhibition at 10 µM was 116%.

As to `N#CN1CCC=C(c2ccc(CC(=O)Nc3cc(OC4CCCOC4)c(Cl)cn3)cn2)C1` (stereo not shown) [Compound 43, N-(5-chloro-4-((tetrahydro-2H-pyran-3-yl)oxy)pyridin-2-yl)-2-(1′-cyano-1′,2′,5′,6′-tetrahydro-[2,3′-bipyridin]-5-yl)acetamide], the IC50 is under 0.01 µM and the inhibition at 10 µM came to 87%.
